Assay results taken from patent US6462017B1, “Method of reducing side effects of chemotherapy in cancer patients” (SciClone Pharmaceuticals, Inc., priority 2000, dated 2002).
Where no end group is shown, it is not given here.

Experiments:
[1] = system: cancer patients (lung, gastric, breast cancer) receiving chemotherapy; assay: Nausea and vomiting classified according to WHO criteria, same trial; format: in vivo, humans; conditions: Cohort A with Tα1, n 54, P < 0.0005
Description: (§1) Method: A randomized crossover open label trial was performed. A total of sixty patients, twenty with lung cancer, twenty with gastric cancer and twenty with breast cancer were studied during two complete cycles of chemotherapy. All patients were randomized into two groups. In group 1, patients received chemotherapy with thymosin α1 in the first cycle, and without thymosin α1 in the second cycle. While patients in group 2 received chemotherapy without thymosin α1 in the first cycle, and with thymosin α1 in the second cycle. The patients were treated as follows:
(§2) Twenty lung cancer patients were treated with 100 mg of Etoposide IV on days 1-5 and 40 mg of Cisplatin I.V. on days 1-3 in a 21 day cycle.
(§3) Twenty gastric cancer patients were treated with 100 mg of Etoposide IV on days 1-5, 30 mg/m^2 Calcium Leucovorin I.V. on days 1-5 and 500 mg/m^2 5-Fluorouricil (5-FU) I.V. on days 1-5.
(§4) Twenty breast cancer patients were treated with 5-Fluorouricil 500 mg/m^2, Adriamycin I.V. 30 mg/m^2 I.V. on day 1 and cyclophosphamide 500 mg/m^2 I.V. on day 1.
(§5) A mild anti-emetic consisting of 20 mg metoclopamide, I.M. and 5 mg Dexamethasone I.V. were given to all patients on days 1-5. All subjects on thymosin received six injections of 1.6 mg s.c. Tα1 on each of the four days immediately preceding the chemotherapy and on days two and four following chemotherapy. All patients who have completed the two cycles of chemotherapy, then were reallocated into two cohorts, A and B. Cohort A are patients with Tα1, and Cohort B are patients without Tα1.

[2] = system: cancer patients (lung, gastric, breast cancer) receiving chemotherapy; assay: Quality of life scored scale, randomized crossover open label trial of chemotherapy cycles with and without Tα1; format: in vivo, humans
Description: as §1, §2, §3, §4, §5
Analysis: Quality of life was analyzed using a scored scale for (1) loss of appetite, (2) loss of sleep, (3) fatigue, (4) reduction in daily activity, (5) decline in overall feeling, (6) depression and (7) nausea and vomiting. Maximum total score was 35 points.

[3] = system: cancer patients; assay: Side effects of thymosin α1 administration; format: in vivo, humans; conditions: administration in conjunction with antineoplastics
[4] = system: VIP receptor; conditions: in vitro; cited from earlier work

## thymosin α1 (SDAAVDTSSEITTKDLKEKKEVVEEAEN; not fully specified; ends and bridges not checked; UniProt P06454 2-29, looked up) [Tα1, acidic polypeptide isolated from thymosin fraction 5, an immunomodulator that acts primarily by enhancing T-cell function]
[1]; without Tα1 0
  Nausea and vomiting WHO Gr. 4, number of patients: 0
[1]; without Tα1 4/53
  Nausea and vomiting WHO Grade 0, number of patients: 7/55
[1]; without Tα1 11
  Nausea and vomiting WHO Gr. 3, number of patients: 1
[1]; without Tα1 19
  Nausea and vomiting WHO Gr. 1, number of patients: 33
  Nausea and vomiting WHO Gr. 2, number of patients: 13
[2]; addition of Tα1 to chemotherapy cycles compared with cycles without Tα1
  Effect on quality of life scores: significantly increases the quality of life scores
[2]; cycles with Tα1 (1.6 mg s.c., six injections) vs. cycles without Tα1 3.70, p = 0.0001
  Fatigue, quality of life score: 4.05 vs. 3.70 p = 0.0001
[2]; cycles with Tα1 (1.6 mg s.c., six injections) vs. cycles without Tα1 3.72, p = 0.003
  Depression, quality of life score: 4.01 vs. 3.72 p = 0.003
[2]; cycles with Tα1 (1.6 mg s.c., six injections) vs. cycles without Tα1 3.84, p = 0.0001
  Reduction in Daily Activity, quality of life score: 4.12 vs. 3.84 p = 0.0001
[2]; cycles with Tα1 (1.6 mg s.c., six injections) vs. cycles without Tα1 3.93, p = 0.001
  Nausea and Vomiting, quality of life score: 4.29 vs. 3.93 p = 0.001
[2]; cycles with Tα1 (1.6 mg s.c., six injections) vs. cycles without Tα1 3.94, p = 0.0001
  Decline in Overall Feeling, quality of life score: 4.32 vs. 3.94 p = 0.0001
[2]; cycles with Tα1 (1.6 mg s.c., six injections) vs. cycles without Tα1 3.99, p = 0.0001
  Loss of Appetite, quality of life score: 4.33 vs. 3.99 p = 0.0001
[2]; cycles with Tα1 (1.6 mg s.c., six injections) vs. cycles without Tα1 4.10, p = 0.002
  Loss of Sleep, quality of life score: 4.41 vs. 4.10 p = 0.002
[3]
  Side effects of thymosin α1: does not appear to result in any side effects
[4]
  VIP receptor binding: has a VIP receptor binding effect
